Experimental data reported in patent US20100221315A1, “VESICULAR FORMULATIONS CONTAINING ORGANIC ACID PRODRUGS, PROCESS FOR THEIR PREPARATION” (UNIVERSIDADE DE LISBOA, priority 2006, published 2010).
In brackets after ≈: the same amount, converted by molar mass. Like-named read-outs stand apart in the source and are kept apart here.

Assays:
[1] = Incorporation efficiency (EE) in liposomes prepared by hydration of a lipid and prodrugs lyophilisate; type: physicochemical; details: hydration of lipids and prodrugs lyophilisate
Description: Solutions were prepared containing 20 μmol of lipids and 2 μmol of prodrug in 10 ml of tert-butanol and were filtered by sterile filtration. These solutions were then frozen in liquid nitrogen and lyophilised for 24 hours.
After lyophilisation, the solutions were hydrated by the addition of 1 ml of PBS at a temperature of at least 10° C. higher than that of the phase transition temperature (TC) of the lipids, using an ultrasound water bath for two minutes. The incorporation efficiencies (EE) were calculated as described above for the liposome preparation carried out by hydration of a lipid film and are shown in Table 7.
All the suspensions produced were checked using an optical microscope set at 400× magnification.

in vitro [2] = type: in vitro ADME; details: human, plasma
Description: 750 μl of plasma, 700 μl of PBS and 50 μl of stock solution of the compound (3.6×10^−3M) were added to each one of the test compounds in the free form in a test tube. The tube was incubated at 37° C. under agitation, and 150 μl aliquots were removed every five minutes, diluted with 600 μl of acetonitrile (ACN), and then centrifuged. The supernatant was removed and injected into an HPLC system. The area values obtained for each chromatogram were used to determine the half-life of each prodrug.
To each liposomal suspension in a test tube, 750 μl of plasma was added and diluted with PBS to a final volume of 3000 μl. The final drug concentration in each tube was 2×10^−3 M. The test tubes were then incubated at 37° C. with agitation and 150 μl aliquots were then removed at set time intervals, diluted with 600 μl of acetonitrile (ACN), and then centrifuged. For the remainder of the process, the same procedure was followed as described above for the free form case.

in vitro [3] = type: in vitro ADME; details: rat, tissue homogenate
Description: For each of the compounds in free form, 50 μl of rat liver homogenate, 1400 μl of PBS and 50 μl of compound stock solution were added (3.6×10^−3 M) in a test tube. The tubes were incubated at 37° C. under agitation, and aliquots of 150 μl were removed every minute, diluted with 600 μl of acetonitrile (ACN), and then centrifuged. The supernatant was removed and placed into the vials of an autosampler and analysed by HPLC.
To each liposomal suspension in a test tube, 50 μl of homogenate was added and diluted with PBS to a final volume of 1500 μl. The final drug concentration was 2×10^−3 M. The test tubes were incubated at 37° C. under agitation and sample collection and analysis were carried out by the same procedure used for determining the stability of liposomal drugs in plasma.

[4] = tested on: Mycobacterium tuberculosis H37Ra; assay: Determination of the Minimum Inhibitory Concentration (MIC) by successive dilutions; type: cell-based; details: for MIC: broth, pH 5.5, about 21 days at 37° C.; for fold lower MIC values than those for PZA and POA: in vitro, pH 5.5
Description: Mycobacterium tuberculosis H37Ra was used as the reference strain. The esters C12, C14 and C16, pyrazinamide (PZA) and pyrazinoic acid (POA) were prepared in stock solutions of dimethyl sulfoxide (DMSO) at a concentration of 8 mg/ml. The Minimum Inhibitory Concentration was determined by the method of successive dilutions. The culture medium Myco (nutrient Broth-Difco, 10 g/L; Middlebrook 7H9-Difco, 10 g/L, 0,05% glucose and 0.01% of Tween 80) supplemented with OADC (Difco) was used and the pH was adjusted to 5.5.
To each test tube of each stage of the successive dilutions of the test compound, a sufficient volume of bacterial inoculum was added so as to provide a final concentration of 10^4 CFU/ml (CFU=Colony Forming Units). The tubes were incubated for about 21 days at 37° C. The onset of turbidity in the control tube (free of drugs) was checked for on a regular basis. Once turbidity appeared in the control test tube, the results were recorded where the MIC value was defined as the lowest concentration of drug able to inhibit the growth of mycobacteria (note there was a total absence of turbidity in the first test tube of the successive dilution sequence). These tests were performed in triplicate for each test compound. As expected, the MIC for PZA was 100 μg/ml.

[5] = Incorporation efficiency (EE) in liposomes prepared by hydration of a lipid and drugs film; type: physicochemical
Description: Different lipids (20 μmol) and the prodrug (2 μmol) were weighed out, transferred to a round-bottom flask, dissolved in chloroform and the organic solvent evaporated using a rotating evaporator to form a lipid film. This film was then dried in a vacuum bomb for the removal of chloroform residues and 1 ml of isotonic phosphate pH 7.4 buffer (PBS) was added at a temperature at least 10° C. higher than the phase transition temperature (TC) of the lipids used. The mixture was stirred for an additional five minutes to complete hydration of the lipid film and, after a few minutes at rest, it was stirred again for a further five minutes.
In order to determine the incorporation efficiency (EE), aliquots of the liposomal suspension after hydration and of the liposomal suspension obtained after centrifugation, supernatant removal and re-suspension of the sediment in its original volume (before being centrifuged) were collected. The EEs were calculated as the ratio between the prodrug concentration in the re-suspended liposome suspension and the prodrug concentration in the initial liposome suspension. Tables 2 to 6 show the EE values obtained for several formulations of different prodrugs.
All the prepared suspensions were checked using an optical phase contrast microscope set at 400× magnification.

M. tuberculosis H37Ra = assay: Antimycobacterial activity of free and encapsulated compounds in macrophage infected with Mycobacterium tuberculosis; type: cell-based; details: infected J774.A1 macrophage
Description: In evaluating the antimycobacterial activity, a conventional method (Anes et al., Nat Cell Biol, 2003) was employed using a cell culture of […] (cell line J774.A1).
Briefly, the macrophage was plated in a DMEM medium having a high glucose concentration and supplemented with 10% Foetal Bovine Serum, in 24 well tissue culture plates at 37° C. in a 5% carbon dioxide atmosphere. As soon as about 80% confluence was obtained, the cells were infected with M. tuberculosis H37Ra at a rate such that an inoculum concentration of 10^6 mycobacteria/ml per well was obtained.
After 3 hours of bacterial uptake, 1 to 5 bacillus per infected cell and a total of about 10E4-5 bacteria/ml were expected per well. Washing of the infected cultures with pH 7 buffer PBS was then carried out three times in order to eliminate all bacteria non internalised by the macrophage. Fresh DMEM medium was added with and without the test compound.
The incubation period was 7 days using fresh medium every 3 days. The compounds were added after 3 hours of internalization and remained in contact with the infected cells until fresh medium DMEM was added.
After 3 hours, 1 day, 3 days, 5 days and 7 days from the beginning of the infection, intracellular bacteria were recovered for lyses of the infected macrophage with a 1% IGEPAL solution (Sigma) in water. At this concentration, macrophage are lysed with no effect on the viability of the mycobacteria.
After successive dilutions of the lysate with water, the surviving bacteria were cultured in Middlebrook 7H10 medium supplemented with OADC (Difco). After about 2 weeks of incubation at 37° C. the Unity Forming Colonies (UFCs) were counted. Each test was carried out in triplicate in independent experiments.

[6] = pH 7.4, Half-life (min) Free form
[7] = pH 7.4, Half-life (min) Vesicular form (DMPC)
[8] = Mycobacterium tuberculosis, H37RA, 504 h, pH 5.5, M. tuberculosis H37Ra, read-out: MIC
[9] = lipid formulation DMPC:DMPG (9:1)

Structure (SMILES) | EE (%) incorporation efficiency ([1]; lipid formulation DMPC) [%] | half-life (in vitro [2]; [6]) [h] | half-life (in vitro [2]; [7]) [h] | half-life (in vitro [3]; [6]) [h] | half-life (in vitro [3]; [7]) [h] | MIC [4, 8] [µg/mL] | EE (%) incorporation efficiency ([5]; lipid formulation DMPC) [%] | EE (%) incorporation efficiency ([5]; lipid formulation DPPC) [%] | intracellular bacterial growth after 7 days of infection (M. tuberculosis H37Ra) | also measured
CCCCCCCCCCCCCCCCOC(=O)c1cnccn1 [Compound C16, hexadecyl pyrazinoate] | 97.3 | 1.13 | 3.57 | 0.35 | 12.8 | 20 to 40 (≈ 57.4 to 115 µM) | – | – | – | –
CCCCCCCCOC(=O)C=Cc1ccccc1 [CO, octyl cinnamate] | – | – | – | – | – | – | 92.2 | 94.5 | – | –
CCCCCCCCCCCCCCNC(=O)c1cnccn1 [Compound A14, N-tetradecyl pyrazinamide] | – | – | – | – | – | – | 95.2 | 96.4 | – | EE (%) incorporation efficiency [5, 9]: 98.6%
CCCCCCCCCCCCCCOC(=O)c1cnccn1 [Compound C14, tetradecyl pyrazinoate] | 98.2 | 0.317 | 2.63 | 0.0667 | 2.82 | 10 to 20 (≈ 31.2 to 62.4 µM) | – | – | – | EE (%) incorporation efficiency ([1]; lipid formulation DPPC): 97.4%; fold lower MIC values than those for PZA and POA [4]: 10 fold
CCCCCCCCCCCCCCCCNC(=O)c1cnccn1 [Compound A16, hexadecyl pyrazinamide] | – | – | – | – | – | – | 97.0 | – | – | EE (%) incorporation efficiency ([5]; lipid formulation DMPG:DMPG 9:1): 98.4%; EE (%) incorporation efficiency ([5]; lipid formulation DPPM): 98.1%
CCCCCCCCCCCCOC(=O)c1cnccn1 [Compound C12, dodecyl pyrazinoate] | 95.6 | 0.25 | 1.3 | 0.0333 | 0.9 | 20 to 40 (≈ 68.4 to 137 µM) | 94.7 | 93.1 | latency was observed | EE (%) incorporation efficiency ([5]; lipid formulation DMPC:DMPG (7:3)): 82.7%; EE (%) incorporation efficiency [5, 9]: 87.0%; EE (%) incorporation efficiency ([5]; lipid formulation DPPC:DPPG (7:3)): 90.2%; EE (%) incorporation efficiency ([5]; lipid formulation DPPC:DPPG (9:1)): 87.2%; fold lower MIC values than those for PZA and POA [4]: 10 fold; difference in bactericidal effect between DPPC and DMPC formulations (M. tuberculosis H37Ra; liposomal forms): no such significant differences; increase of bactericidal effect by encapsulation in liposomes relatively to free form (M. tuberculosis H37Ra; FIG. 1B): about 50%; bactericidal effect, comparison of compounds (M. tuberculosis H37Ra; free or vesicular form, FIG. 2A, 2B): greatest bactericidal effect
NC(=O)c1cnccn1 [PZA, pyrazinamide, reference compound] | – | – | – | – | – | 100 (≈ 812 µM) | – | – | bacteria recovered their ability of intracellular growth | MIC ([4]; M. tuberculosis H37Ra): 100 to 200 µg/mL
CCCCCCCCCCOC(=O)c1ccccc1 [BD, decyl benzoate] | – | – | – | – | – | – | 94.1 | 93.4 | – | –
O=C(O)c1cnccn1 [POA, pyrazinoic acid, reference compound] | – | – | – | – | – | 100 to 200 (≈ 806 to 1610 µM) | – | – | bacteria recovered their ability of intracellular growth | –
